Measurements: patent US11944605B2, “Rapamycin analogs and uses thereof” (Janssen Pharmaceutica NV, priority 2018, dated 2024)
pIC50: −log10 of the molar value. Entries after “also recorded” stand apart in the source; their conditions may differ. Read-outs that look alike come from different tables or passages of the source.

Tests used:
[1] = test system: mTORC2 (Akt phosphorylation) in TSC+/+ MEF cells; assay: Western blot, mTORC2 pathway (pAkt) in TSC+/+ MEF cells; type: cell-based, mouse; conditions: 90 minutes
Experimental: (§1) The methods employed were substantially similar to those described above. Compounds were evaluated in PC3 cells, Jurkat cells, wild-type mouse embryotic fibroblast (MEF) cells, tuberous sclerosis 2 (TSC2) negative (TSC −/−) MEF cells, and tuberous sclerosis 2 (TSC2) positive (TSC +/+) MEF cells. Cells were incubated with compounds of the present invention for various time periods (e.g., 5 minutes, 15 minutes, 30 minutes, 90 minutes, 24 hours, or 48 hours), and evaluated according to known methodologies, such as those herein described.

[2] = test system: 4E-BP1 phosphorylation in PC3 cells; assay: Western blot, 4E-BP1 phosphorylation in PC3 cells; type: cell-based; conditions: 24 hours
[3] = test system: mTORC1 pathway in Jurkat cells; assay: Western blot, mTORC1 pathway in Jurkat cells; type: cell-based; conditions: 24 hrs
Experimental: as §1

[4] = test system: mTORC1 pathway in tuberous sclerosis 2 (TSC2) positive (TSC+/+) MEF cells; assay: Western blot, mTORC1 pathway in TSC+/+ MEF cells; type: cell-based, mouse
Experimental: as §1

[5] = test system: pS6K1 (p-p70 S6 Kinase (Thr389)) in MCF-7 cells; assay: AlphaLISA Ultra pS6K1 Assay; type: cell-based; conditions: Homo sapiens, 1.5 h; MCF7 cells, 90 min
Method in brief: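 AlphaLISA Ultra read-out (acceptor beads 2 h, then donor beads 2 h) on thawed lysates of MCF-7 cells. Cells had 20–24 h after seeding and a 2 h medium change, then 90 min of compound exposure at 0.5% final DMSO, with lysates stored at −80 °C.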

[6] = test system: mTORC2 pathway (Akt phosphorylation) in PC3 cells; assay: Western blot, mTORC2 pathway (pAkt) in PC3 cells; type: cell-based; conditions: for inhibition of mTORC2 (Akt phosphorylation): 24 hours
Method in brief: (§2)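 Triton lysates analysed by Western blot for pS6K1 and pAkt, detected with IRDye 800 anti-rabbit secondary on a Li-Cor imager.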

[7] = test system: mTORC2 (Akt phosphorylation) in wild-type MEF cells; assay: Western blot, mTORC2 pathway (pAkt) in wild-type MEF cells; type: cell-based, mouse; conditions: 24 hours
Experimental: as §1

[8] = test system: IFN-γ production; assay: IFN-γ production in allogenic mixed lymphocyte reaction; type: cell-based; conditions: for pIC50: read-out: IFN-γ Inhibition IC50s
Experimental: Assessment of Effect on IFN-γ Production in Allogenic Mixed Lymphocyte Reaction
The effect of rapamycin, everolimus, I-29, and I-117 on IFN-y production was evaluated in an allogenic mixed lymphocyte reaction (E.g., Eleftheriadis, T. et al., Int. J. Mol. Med., 37(5): 1412-20 (2016) https://doi.org/10.3892/ijmm.2016.2547).

[9] = test system: mTORC1 pathway in wild-type MEF cells; assay: Western blot, mTORC1 pathway in wild-type MEF cells; type: cell-based, mouse; conditions: 24 hours
Experimental: as §1

[10] = test system: mTORC2 (Akt phosphorylation) in Jurkat cells; assay: Western blot, mTORC2 pathway (pAkt) in Jurkat cells; type: cell-based; conditions: 24 hrs
Experimental: as §1

[11] = test system: mTORC1 pathway in tuberous sclerosis (TSC2) negative (TSC−/−) MEF cells; assay: Western blot, mTORC1 pathway in TSC−/− MEF cells; type: cell-based, mouse
Experimental: as §1

[12] = test system: mTORC1 pathway (pS6K1 T389) in PC3 cells; assay: Western blot, mTORC1 pathway (pS6K1) in PC3 cells; type: cell-based
Method in brief: as §2

[13] = test system: mTORC2 (Akt phosphorylation) in TSC−/− MEF cells; assay: Western blot, mTORC2 pathway (pAkt) in TSC−/− MEF cells; type: cell-based, mouse
Experimental: as §1

[14] = test system: mTORC1 over mTORC2; assay: mTORC1 selectivity over mTORC2 at 24 hrs (Western blot based pS6K1 and pAKT assay); type: cell-based; conditions: 24 hrs
[15] = test system: AKT (PKB) Ser473 phosphorylation; conditions: human adipocytes, 0.01 μM; cited from earlier work
[16] = test system: glucose uptake in human adipocytes; conditions: 0.01 μM; cited from earlier work
[17] = test system: Lmn−/− mice; conditions: short-term treatment; cited from earlier work
[18] = test system: Akt (an mTORC2 substrate); conditions: cited from earlier work
[19] = Pharmacokinetic properties in C57Bl/6 mice; type: in vivo; conditions: for half-life: read-out: Terminal T1/2 (converted)
Experimental: Pharmacokinetic Properties
The pharmacokinetic properties of compounds of the present invention were evaluated in C57Bl/6 mice and compared with rapamycin. Animals were fasted overnight prior to administration of I-29 or rapamycin (1 mg/kg IV, 10 mg/kg PO, or 2 mg/kg IP). Animals were bled at time intervals for up to 48 hours following administration of compounds. Whole blood from each mouse was indivisually collected in polypropylene tubes and immediately centrifuged. Alloquates of the separated plasma were promptly prepared for HPCL analysis.

[20] = test system: Akt phosphorylation; conditions: mice treated daily for 1 week; cited from earlier work
[21] = Glucose tolerance (ipGTT) during chronic treatment in lean C57Bl/6 mice; type: in vivo; conditions: chronic treatment 15 days, I-29 10 mg/kg PO, rapamycin 10 mg/kg IP
Experimental: Assessment of Effect of Chronic Treatment with I-29 on Glucose Tolerance and Insulin Sensitivity in Lean C57Bl/6 Mice
C57Bl/6 mice (n=12; 8 weeks of age) were randomized and baseline measurements (weight, fasting glucose, and fasting insulin) were measured four (4) days prior to the administration of compounds or vehicle. Animals were then treated with I-29 (10 mg/kg PO), rapamycin (10 mg/kg IP) or vehicle (PO or IP) for 19 days. On day 7 and 14 animals were weighed and fed glucose and fed insulin levels were evaluated. Animals were fasted overnight on day 14 and on day 15 fasting insulin and an intraperitoneal glucose tolerance test (ipGTT) were evaluated. On day 19 animals were sacrificed one (1) hour after compound or vehicle administration. Tissues were harvested for evaluating compound levels and pharmacodynamics.

[22] = test system: T389 of S6K1 (an mTORC1 substrate); conditions: PC3, HEK-293T, HeLa, and H460 cells, 1 or 24 hour treatments; cited from earlier work

In the case of `CO[C@@H]1C[C@H](C[C@@H](C)[C@@H]2CC(=O)[C@H](C)/C=C(\C)[C@@H](O)[C@@H](OC)C(=O)[C@H](C)C[C@H](C)/C=C/C=C/C=C(\C)[C@@H](OCCOCCO)C[C@@H]3CC[C@@H](C)[C@@](O)(O3)C(=O)C(=O)N3CCCC[C@H]3C(=O)O2)CC[C@H]1OCCO` [I-117, (21E,23E,25E,26E,34R,35S,36R,37R,39S,41S,43S,44S,45R,46R, 55R)-45,55-dihydroxy-43-[2-(2-hydroxyethoxy)ethoxy]-44-[(1R)-2-[(1S,3R, 4R)-4-(2-hydroxyethoxy)-3-methoxy-cyclohexyl]-1-methyl-ethyl]-46-methoxy-34,35,36,37,47,48-hexamethyl-66, 67-dioxa-56-azatricyclohexatriaconta-21,23,25(47),26(48)-tetraene-49, 50,51,52,53-pentone], the “inhibition of mTORC2 (Akt phosphorylation)” value (shortened to “inhibition of mTORC2”) [1] was “do not inhibit”, the “inhibition of 4E-BP1 phosphorylation” value [2] was “no inhibition” and the “inhibition of the mTORC1 pathway” value [3] was “strong inhibition”. For the same molecule, the “inhibition of the mTORC1 pathway” value ([4]; 90 minutes) was “moderate concentration dependent inhibition”, the pIC50 [5] was > 10.00 and the “inhibition of mTORC2” value [6] was “does not inhibit”. The “inhibition of mTORC2” value [7] was “do not inhibit”, the “inhibition of IFN-γ production” value [8] was “did not inhibit” and the pIC50 [8] was < 5.52. For the same molecule, the “inhibition of the mTORC1 pathway” value [9] was “moderate inhibition; also recorded: strong inhibition”, the “inhibition of mTORC2” value [10] was “do not inhibit” and the “inhibition of the mTORC1 pathway” value ([11]; 90 minutes) was “strong inhibition”. For the same molecule, the “inhibition of the mTORC1 pathway” value ([11]; 24 hours) was “strong inhibition”, the “inhibition of the mTORC1 pathway” value ([12]; PC3 cells, 24 hours) was “strong inhibition” and the “inhibition of mTORC2” value ([13]; 90 minutes) was “do not inhibit”. The “inhibition of mTORC2” value ([13]; 24 hours) was “do not inhibit” and the “mTORC1 selective @ 24 hrs” value [14] was “YES”.

For `CO[C@H]1C[C@@H]2CC[C@@H](C)[C@@](O)(O2)C(=O)C(=O)N2CCCC[C@H]2C(=O)O[C@H]([C@H](C)C[C@@H]2CC[C@@H](O)[C@H](OC)C2)CC(=O)[C@H](C)/C=C(\C)[C@@H](O)[C@@H](OC)C(=O)[C@H](C)C[C@H](C)/C=C/C=C/C=C/1C` [Rapamycin, rapamycin], the “AKT (PKB) Ser473 phosphorylation” value [15] is listed as “reduced”, the glucose uptake [16] is listed as “reduced” and the “inhibition of 4E-BP1 phosphorylation” value [2] is listed as “no inhibition”. For the same molecule, the “inhibition of the mTORC1 pathway” value ([4]; 90 minutes) was “strong inhibition”, the “inhibition of the mTORC1 pathway” value ([4]; 24 hours) was “strong inhibition” and the enhanced survival [17] was ~50%. For the same molecule, the “inhibition of the mTORC2 pathway (Akt phosphorylation)” value ([6]; 24 and 48 hours) was “inhibition; also recorded: inhibited”, the “inhibition of mTORC2” value [6] was “dose dependent inhibition” and the “inhibition of IFN-γ production” value [8] was “significantly inhibited”. The pIC50 [8] was 8.62, the “inhibition of pAKT” value ([18]; HEK-293T cells) was “Partial inhibition” and the Akt phosphorylation ([18]; HeLa cells) was “increase”. For the same molecule, the Akt phosphorylation ([18]; PC3 cells) was “strongly decreased”, the F ([19]; 2 mg/kg IP) was 35.1% and the F ([19]; 10 mg/kg PO) was 0.8%. It also gave an AUC(0-inf) ([19]; mouse, plasma, 1 mg/kg IV) of 3630 ng·h/mL, an AUC(0-t) ([19]; mouse, plasma, 1 mg/kg IV) of 3620 ng·h/mL and an MRT inf ([19]; mouse, plasma, 1 mg/kg IV) of 6.27 h. The clearance ([19]; mouse, plasma, 1 mg/kg IV) was 4.6 mL/min/kg, the half-life ([19]; mouse, plasma, 1 mg/kg IV) was 8.35 h and the Vd ([19]; mouse, plasma, 1 mg/kg IV, read-out: Vss) was 1.73 L/kg. The AUC(0-inf) ([19]; mouse, plasma, 2 mg/kg IP) was 2540 ng·h/mL, the AUC(0-t) ([19]; mouse, plasma, 2 mg/kg IP) was 2480 ng·h/mL and the Cmax ([19]; mouse, plasma, 2 mg/kg IP) was 614 ng/mL. For the same molecule, the Tmax ([19]; mouse, plasma, 2 mg/kg IP) was 0.25 h, the half-life ([19]; mouse, plasma, 2 mg/kg IP) was 4.8 h and the AUC(0-t) ([19]; mouse, plasma, 10 mg/kg PO) was 292 ng·h/mL. The Cmax ([19]; mouse, plasma, 10 mg/kg PO) was 52.8 ng/mL, the Tmax ([19]; mouse, plasma, 10 mg/kg PO) was 3 h and the “Akt phosphorylation in the thymus, adipose tissue, heart, and lung” value [20] was “decreased”. The “inhibition of the mTORC1 pathway” value ([11]; 24 hours) was “strong inhibition”, the “inhibition of the mTORC1 pathway (pS6K1)” value ([12]; PC3 cells, 24 and 48 hours) was “significant reduction; also recorded: strong inhibition” and the “inhibition of the mTORC1 pathway” value ([12]; PC3 cells, 30, 15, or 5 minutes) was “time dependent inhibition”. For the same molecule, the “inhibition of the mTORC1 pathway” value ([12]; PC3 cells, 90 minutes) was “strong inhibition”, the “inhibition of the mTORC1 pathway” value ([12]; PC3 cells, 24 hours) was “strong inhibition” and the “glucose intolerance in intraperitoneal glucose tolerance test (ipGTT)” value [21] was “induced glucose intolerance”. The S6K1 phosphorylation [22] was “inhibited”.
